In general, IC50 refers to the concentration needed to halve the response being measured. The low end stands for greater potency, the high end for weaker potency.

The target in test [1] is T1, ENPP1 (Homo sapiens (Human), UniProt P22413). Put plainly: cGAMP-Glo enzymatic assay (2′3′-cGAMP substrate, AMP-Glo readout). The class given is biochemical. The conditions noted are these: substrate 2′3′-cGAMP; 25° C. for 60 min; 50 mM Tris pH 8.8. The procedure: (§1) Example A: Enzymatic Assay
(§2) • 1. Diluted compounds in DMSO by hand for 11 points, 3 folds dilution. Then transferred 0.02 μL compounds to 384 assay plate by ECHO. • 2. Added 2 μL specified concentration of ENPP1 to 384 assay plate. Centrifuged 1000 RPM for 1 min. • 3. Added 2 μL specified concentration of ATP to the assay plate. Centrifuged 1000 RPM for 1 min. • 4. Incubated at 25° C. for 60 min. • 5. Added 4 μL AMP-Glo Reagent to the assay plates. • 6. Centrifuged 1000 RPM for 1 min, incubate at 25° C. for 1 hours. • 7. Added 8 μL Kinase Detection Reagent to the assay plates. • 8. Centrifuged 1000 RPM for 1 min, incubated at 25° C. for 1 hours. The final assay reaction mixture contained a buffer of 50 mM Tris pH 8.8, 250 mM NaCl and 0.1% BSA • 9. Read on Envision for US LUM as RLU. • 10. Analyzed the raw data using the equation (V. Data analysis). cGAMP-Glo Assay: • 1. Diluted compounds in DMSO by hand for 11 points, 3 folds dilution. Then transferred 0.02 μL compounds to 384 assay plate by ECHO. • 2. Added 2 μL specified concentration of ENPP1 to 384 assay plate, centrifuged 1000 RPM for 1 min. • 3. Added 2 μL specified concentration of 2′3′-cGAMP to the assay plate, centrifuged 1000 RPM for 1 min. • 4. Incubated at 25° C. for 60 min. • 5. Added 4 μL AMP-Glo Reagent to the assay plates. • 6. Centrifuged 1000 RPM for 1 min, incubated at 25° C. for 1 hours. • 7. Added 8 μL Kinase Detection Reagent to the assay plates. • 8. Centrifuged 1000 RPM for 1 min, incubate at 25° C. for 1 hours. The final assay reaction mixture contained a buffer of 50 mM Tris pH 8.8, 250 mM NaCl and 0.1% BSA • 9. Read on Envision for US LUM as RLU. • 10. Analyzed the raw data using the equation (V. Data analysis).

In test [2] the target is T1, ENPP1. Put plainly: ATP-Glo enzymatic assay (ATP substrate, AMP-Glo readout). The class given is biochemical. The conditions noted are these: 25° C. for 60 min, 50 mM Tris pH 8.8. The procedure:
as §1, §2

T1 sequence (P22413 whole entry, species assumed): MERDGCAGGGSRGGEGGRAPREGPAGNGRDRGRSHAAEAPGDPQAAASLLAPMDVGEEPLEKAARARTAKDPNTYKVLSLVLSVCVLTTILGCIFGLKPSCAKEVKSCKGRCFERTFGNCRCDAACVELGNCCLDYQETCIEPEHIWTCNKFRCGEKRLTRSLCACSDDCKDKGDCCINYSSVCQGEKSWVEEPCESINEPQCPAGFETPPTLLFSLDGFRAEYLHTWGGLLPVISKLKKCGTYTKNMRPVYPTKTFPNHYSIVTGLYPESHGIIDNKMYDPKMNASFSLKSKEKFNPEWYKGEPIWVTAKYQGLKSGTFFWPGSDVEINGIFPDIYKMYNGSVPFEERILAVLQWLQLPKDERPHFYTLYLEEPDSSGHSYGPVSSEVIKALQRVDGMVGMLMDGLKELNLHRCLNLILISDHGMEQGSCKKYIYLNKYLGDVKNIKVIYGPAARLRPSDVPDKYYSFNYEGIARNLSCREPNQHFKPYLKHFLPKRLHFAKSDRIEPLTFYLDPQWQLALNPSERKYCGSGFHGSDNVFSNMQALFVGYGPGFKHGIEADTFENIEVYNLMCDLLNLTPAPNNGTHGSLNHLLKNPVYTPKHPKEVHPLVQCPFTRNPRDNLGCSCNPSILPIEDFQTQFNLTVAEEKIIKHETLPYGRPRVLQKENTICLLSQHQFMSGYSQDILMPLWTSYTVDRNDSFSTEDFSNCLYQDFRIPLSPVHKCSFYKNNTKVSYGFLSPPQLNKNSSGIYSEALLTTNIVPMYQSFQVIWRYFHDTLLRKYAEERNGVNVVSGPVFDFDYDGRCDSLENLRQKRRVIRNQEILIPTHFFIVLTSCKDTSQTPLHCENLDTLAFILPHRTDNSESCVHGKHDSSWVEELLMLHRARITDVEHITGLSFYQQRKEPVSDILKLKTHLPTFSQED

Consider `COc1ncc2nc(C(F)F)n(Cc3ccc(S(N)(=O)=O)cn3)c2c1-c1ccccc1` [Example 75, 6-((2-(difluoromethyl)-6-methoxy-7-phenyl-1H-imidazo[4,5-c]pyridin-1-yl)methyl)pyridine-3-sulfonamide], for which the IC50 against ENPP1 [1] and against ENPP1 [2] was less than 1 nM each time.
For the compound `Cc1ncc2nc(C(F)F)n(Cc3ncc(S(N)(=O)=O)cc3F)c2c1-c1ccccc1` [Example 72, 6-((2-(difluoromethyl)-6-methyl-7-phenyl-1H-imidazo[4,5-c]pyridin-1-yl)methyl)-5-fluoropyridine-3-sulfonamide], the IC50 on ENPP1 [1] and against ENPP1 [2] was less than 1 nM each time.
With `COc1ncc2cnn(Cc3ccc(S(N)(=O)=O)cc3)c2c1-c1ccccc1` [Example 21, 4-((6-methoxy-7-phenyl-1H-pyrazolo[4,3-c]pyridin-1-yl)methyl)benzenesulfonamide], the values for the half-maximal inhibitory concentration (IC50) on ENPP1 [1] and at ENPP1 [2] were 1 to 10 nM and 10 to 100 nM, respectively.
On the same counts, the results for `Cc1ncc2nc(C)n(Cc3c(F)cc(S(N)(=O)=O)cc3F)c2c1-c1ccccc1F` [Example 44, 3,5-difluoro-4-((7-(2-fluorophenyl)-2,6-dimethyl-1H-imidazo[4,5-c]pyridin-1-yl)methyl)benzenesulfonamide] are less than 1 nM and less than 1 nM.
For `Cc1ncc2c(c1-c1ccccc1)n(Cc1ccc(S(N)(=O)=O)cn1)c(=O)n2C` [Example 81, 6-((3,6-dimethyl-2-oxo-7-phenyl-2,3-dihydro-1H-imidazo[4,5-c]pyridin-1-yl)methyl)pyridine-3-sulfonamide], in that order: less than 1 nM and less than 1 nM.
For `Cc1ncc2c(C)cn(Cc3c(F)cc(S(N)(=O)=O)cc3F)c2c1-c1ccccc1` [Example 14, 4-[(3,6-dimethyl-7-phenylpyrrolo[3,2-c]pyridin-1-yl)methyl]-3,5-difluorobenzene-1-sulfonamide], in that order: less than 1 nM and less than 1 nM.
As for `Cc1ncc2nc(C)n(Cc3c(F)cc(S(N)(=O)=O)cc3F)c2c1C1=CCCC1` [Example 58, 4-((7-(cyclopent-1-en-1-yl)-2,6-dimethyl-1H-imidazo[4,5-c]pyridin-1-yl)methyl)-3,5-difluorobenzenesulfonamide], the IC50 against ENPP1 [1] and at ENPP1 [2] was less than 1 nM throughout.
As to `Cc1ncc2nc(C)n(Cc3ccc(S(N)(=O)=O)nc3)c2c1-c1ccccc1` [Example 66, 5-((2,6-dimethyl-7-phenyl-1H-imidazo[4,5-c]pyridin-1-yl)methyl)pyridine-2-sulfonamide], the half-inhibitory concentration (IC50) against ENPP1 [1] and against ENPP1 [2] was less than 1 nM each time.
On to “4-((6-cyano-2-methyl-7-phenyl-1H-imidazo[4,5-c]pyridin-1-yl)methyl)benzenesulfonamide [Example 41]”, for which the IC50 at ENPP1 [1] and on ENPP1 [2] was less than 1 nM throughout.
As to `COc1ncc2nc(C(F)F)n(Cc3ncc(S(N)(=O)=O)cc3F)c2c1-c1ccccc1` [Example 76, 6-((2-(difluoromethyl)-6-methoxy-7-phenyl-1H-imidazo[4,5-c]pyridin-1-yl)methyl)-5-fluoropyridine-3-sulfonamide], the IC50 against ENPP1 [1] and against ENPP1 [2] was less than 1 nM in each case.
`CC#Cc1c(C)ncc2nc(C)n(Cc3c(F)cc(S(N)(=O)=O)cc3F)c12` [Example 64, 4-((2,6-dimethyl-7-(prop-1-yn-1-yl)-1H-imidazo[4,5-c]pyridin-1-yl)methyl)-3,5-difluorobenzenesulfonamide]: the IC50 at ENPP1 [1] and on ENPP1 [2] was less than 1 nM in each case.
In the case of `Cc1ncc2nc(C(F)F)n(Cc3ccc(S(N)(=O)=O)cn3)c2c1-c1ccccc1` [Example 71], the IC50 at ENPP1 [1] and on ENPP1 [2] was less than 1 nM throughout.
`Cc1ncc2c(C)cn(Cc3c(F)cc(S(N)(=O)=O)cc3F)c2c1-c1ccn(C)n1` [Example 17, 4-((3,6-dimethyl-7-(1-methyl-1H-pyrazol-3-yl)-1H-pyrrolo[3,2-c]pyridin-1-yl)methyl)-3,5-difluorobenzenesulfonamide]: the IC50 against ENPP1 [1] and against ENPP1 [2] was 1 to 10 nM in each case.
Consider `COc1ncc2c(c1-c1ccccc1)n(Cc1c(F)cc(S(N)(=O)=O)cc1F)c(=O)n2C` [Example 56, 3,5-difluoro-4-((6-methoxy-3-methyl-2-oxo-7-phenyl-2,3-dihydro-1H-imidazo[4,5-c]pyridin-1-yl)methyl)benzenesulfonamide], for which the IC50 against ENPP1 [1] and on ENPP1 [2] was less than 1 nM in each case.
`COc1ncc2nc(C(F)(F)F)n(Cc3ncc(S(N)(=O)=O)cc3F)c2c1-c1ccccc1` [Example 78, 5-fluoro-6-((6-methoxy-7-phenyl-2-(trifluoromethyl)-1H-imidazo[4,5-c]pyridin-1-yl)methyl)pyridine-3-sulfonamide]: the IC50 at ENPP1 [1] and at ENPP1 [2] was less than 1 nM each time.
For the compound `COc1ncc2nc(C(F)(F)F)n(Cc3ccc(S(N)(=O)=O)cn3)c2c1-c1ccccc1` [Example 77], the IC50 against ENPP1 [1] and against ENPP1 [2] was less than 1 nM each time.
On to `COc1ncc2ccn(Cc3ccc(NS(N)(=O)=O)cc3)c2c1-c1ccn(C)n1` [Example 3, N-(4-((6-methoxy-7-(1-methyl-1H-pyrazol-3-yl)-1H-pyrrolo[3,2-c]pyridin-1-yl)methyl)phenyl) sulfamide], for which the IC50 at ENPP1 [1] is 100 to 1000 nM; against ENPP1 [2], greater than 1000 nM.
In the case of `Cc1ncc2nc(CC(F)(F)F)n(Cc3c(F)cc(S(N)(=O)=O)cc3F)c2c1-c1ccccc1` [Example 50, 3,5-difluoro-4-((6-methyl-7-phenyl-2-(2,2,2-trifluoroethyl)-1H-imidazo[4,5-c]pyridin-1-yl)methyl)benzenesulfonamide], the IC50 on ENPP1 [1] and against ENPP1 [2] was less than 1 nM in each case.
With `COc1ncc2nc(C)n(Cc3ccc(S(N)(=O)=O)cc3F)c2c1-c1ccccc1` [Example 25], the IC50 against ENPP1 [1] and against ENPP1 [2] was less than 1 nM each time.
In the case of `Cc1ncc2nc(C3CC3)n(Cc3ncc(S(N)(=O)=O)cc3F)c2c1-c1ccccc1` [Example 70, 6-((2-cyclopropyl-6-methyl-7-phenyl-1H-imidazo[4,5-c]pyridin-1-yl)methyl)-5-fluoropyridine-3-sulfonamide], the IC50 on ENPP1 [1] and at ENPP1 [2] was less than 1 nM throughout.
`COc1ncc2c(c1-c1ccccc1)n(Cc1ccc(S(N)(=O)=O)cc1)c(=O)n2C` [Example 19, 4-[(6-methoxy-3-methyl-2-oxo-7-phenylimidazo[5,4-c]pyridin-1-yl)methyl]benzene-1-sulfonamide]: the half-inhibitory concentration (IC50) on ENPP1 [1] and on ENPP1 [2] was less than 1 nM each time.
For the compound `Cc1ncc2ccn(Cc3ccc(NS(N)(=O)=O)cc3)c2c1-c1ccn(C)n1` [Example 2, N-(4-((6-methyl-7-(1-methyl-1H-pyrazol-3-yl)-1H-pyrrolo[3,2-c]pyridin-1-yl)methyl)phenyl) sulfamide], the IC50 is 100 to 1000 nM against ENPP1 [1] and greater than 1000 nM against ENPP1 [2].
On the same counts, the results for `Cc1ncc2nc(C(F)(F)F)n(Cc3ccc(S(N)(=O)=O)cn3)c2c1-c1ccccc1` [Example 67, 6-((6-methyl-7-phenyl-2-(trifluoromethyl)-1H-imidazo[4,5-c]pyridin-1-yl)methyl)pyridine-3-sulfonamide] are less than 1 nM and less than 1 nM.
On the same counts, the results for `COc1ncc2nc(C)n(Cc3ccc(S(N)(=O)=O)cn3)c2c1-c1ccccc1` [Example 74, 6-((6-methoxy-2-methyl-7-phenyl-1H-imidazo[4,5-c]pyridin-1-yl)methyl)pyridine-3-sulfonamide] are less than 1 nM and less than 1 nM.
On the same counts, the results for `CCc1ncc2nc(C)n(Cc3c(F)cc(S(N)(=O)=O)cc3F)c2c1-c1ccccc1` [Example 48, 4-((6-ethyl-2-methyl-7-phenyl-1H-imidazo[4,5-c]pyridin-1-yl)methyl)-3,5-difluorobenzenesulfonamide] are less than 1 nM and less than 1 nM.
For the compound `Cc1ncc2c(c1-c1ccccc1)n(Cc1ncc(S(N)(=O)=O)cc1F)c(=O)n2C` [Example 79, 6-((3,6-dimethyl-2-oxo-7-phenyl-2,3-dihydro-1H-imidazo[4,5-c]pyridin-1-yl)methyl)-5-fluoropyridine-3-sulfonamide], the IC50 against ENPP1 [1] and against ENPP1 [2] was less than 1 nM throughout.
For the compound `[2H]C([2H])([2H])c1nc2cnc(C)c(-c3ccccc3)c2n1Cc1c(F)cc(S(N)(=O)=O)cc1F` [Example 42, 3,5-difluoro-4-((6-methyl-2-(methyl-d3)-7-phenyl-1H-imidazo[4,5-c]pyridin-1-yl)methyl)benzenesulfonamide], the IC50 at ENPP1 [1] and on ENPP1 [2] was less than 1 nM throughout.
Consider `Cc1ncc2nc(C)n(Cc3ccc(OS(N)(=O)=O)cc3)c2c1-c1ccccc1` [Example 37], for which the IC50 against ENPP1 [1] and against ENPP1 [2] was less than 1 nM throughout.

Values taken from patent US20250101019A1 (Insilico Medicine IP Limited, priority 2022, published 2025).
